Experiment [1] in a line: Neuroprotective activity in human SH-SY5Y cells assessed as protection against H2O2-induced reduction of cell viability at 100 uM treated 2 hrs before H2O2 addition measured after 24 hrs by MTT assay relative to H2O2 treated control. It counts as functional, cell-based.
Experiment [2] is described as follows: Neuroprotective activity in human SH-SY5Y cells assessed as protection against H2O2-induced reduction of cell viability at 100 uM treated 2 hrs before H2O2 addition measured after 24 hrs by MTT assay relative to control. It counts as functional, cell-based.
In experiment [3] the target is T1, Acetylcholinesterase (Rattus norvegicus) (UniProt P37136).
T1 sequence (whole entry): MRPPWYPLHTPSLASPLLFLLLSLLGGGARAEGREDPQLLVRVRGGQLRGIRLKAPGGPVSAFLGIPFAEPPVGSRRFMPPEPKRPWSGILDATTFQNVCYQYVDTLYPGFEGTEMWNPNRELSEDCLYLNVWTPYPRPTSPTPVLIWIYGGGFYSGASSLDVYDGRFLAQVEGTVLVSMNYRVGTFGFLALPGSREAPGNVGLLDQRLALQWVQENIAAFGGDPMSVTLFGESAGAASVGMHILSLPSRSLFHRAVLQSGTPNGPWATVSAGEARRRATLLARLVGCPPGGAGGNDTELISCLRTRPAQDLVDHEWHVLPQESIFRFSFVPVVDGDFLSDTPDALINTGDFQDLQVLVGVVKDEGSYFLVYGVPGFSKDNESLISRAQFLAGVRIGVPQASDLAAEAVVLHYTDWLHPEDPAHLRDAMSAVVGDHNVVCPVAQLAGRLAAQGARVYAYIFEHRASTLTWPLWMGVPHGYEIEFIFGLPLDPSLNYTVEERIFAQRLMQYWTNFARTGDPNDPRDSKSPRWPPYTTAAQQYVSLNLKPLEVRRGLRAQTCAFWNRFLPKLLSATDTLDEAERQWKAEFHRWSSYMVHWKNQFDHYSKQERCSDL
The experiment is described as follows: Mixed-type competitive inhibition of rat cortical AChE by Lineweaver-Burke plot analysis.

The target in experiment [4] is T2, Acetylcholinesterase (Mus musculus, UniProt P21836).
T2 sequence (P21836 whole entry): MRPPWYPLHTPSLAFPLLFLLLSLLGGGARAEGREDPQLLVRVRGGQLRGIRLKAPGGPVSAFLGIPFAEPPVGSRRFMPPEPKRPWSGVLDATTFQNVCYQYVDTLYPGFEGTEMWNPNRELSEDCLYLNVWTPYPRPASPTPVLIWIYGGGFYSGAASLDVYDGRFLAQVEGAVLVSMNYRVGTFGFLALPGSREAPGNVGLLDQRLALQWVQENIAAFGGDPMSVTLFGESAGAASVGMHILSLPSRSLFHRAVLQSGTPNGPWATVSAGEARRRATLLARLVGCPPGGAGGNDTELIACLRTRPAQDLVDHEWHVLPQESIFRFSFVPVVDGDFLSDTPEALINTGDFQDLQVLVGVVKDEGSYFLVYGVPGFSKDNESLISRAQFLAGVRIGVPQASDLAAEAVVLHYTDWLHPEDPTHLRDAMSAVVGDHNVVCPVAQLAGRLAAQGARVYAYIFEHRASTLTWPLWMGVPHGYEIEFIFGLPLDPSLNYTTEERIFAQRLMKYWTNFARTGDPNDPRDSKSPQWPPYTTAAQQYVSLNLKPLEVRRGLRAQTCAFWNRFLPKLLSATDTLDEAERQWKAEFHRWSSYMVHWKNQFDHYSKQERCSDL
The experiment in a line: Inhibition of mouse skeletal AChE.

The target in experiment [5] is T1, Acetylcholinesterase (Rattus norvegicus). The experiment in a line: Reversible inhibition of rat cortical AChE up to 8 mins.
Experiment [6] has as its target Acetylcholinesterase (Homo sapiens, UniProt P22303). The experiment in a line: Inhibition of AChE (unknown origin) using acetylthiocholine iodide as substrate after 8 mins by Ellman's spectrophotometric method.
Experiment [7] in a line: Neuroprotective activity in human SH-SY5Y cells assessed as protection against H2O2-induced reduction of cell viability at 10 uM treated 2 hrs before H2O2 addition measured after 24 hrs by MTT assay relative to H2O2 treated control. It counts as functional, cell-based.
Experiment [8] in a line: Neuroprotective activity in human SH-SY5Y cells assessed as protection against H2O2-induced reduction of cell viability at 10 uM treated 2 hrs before H2O2 addition measured after 24 hrs by MTT assay relative to control. It counts as functional, cell-based.
Experiment [9] is described as follows: Neuroprotective activity in human SH-SY5Y cells assessed as protection against H2O2-induced reduction of cell viability at 1 uM treated 2 hrs before H2O2 addition measured after 24 hrs by MTT assay relative to control. It counts as functional, cell-based.

Calls of active or inactive are those of the source. No cut-off for these calls is given here.

We go through six compounds from ChEMBL document CHEMBL2407087, “Casuarinines A-J, lycodine-type alkaloids from Lycopodiastrum casuarinoides” (J Nat Prod, 2013).

Sequence of Acetylcholinesterase (Homo sapiens, UniProt P22303) (P22303 whole entry): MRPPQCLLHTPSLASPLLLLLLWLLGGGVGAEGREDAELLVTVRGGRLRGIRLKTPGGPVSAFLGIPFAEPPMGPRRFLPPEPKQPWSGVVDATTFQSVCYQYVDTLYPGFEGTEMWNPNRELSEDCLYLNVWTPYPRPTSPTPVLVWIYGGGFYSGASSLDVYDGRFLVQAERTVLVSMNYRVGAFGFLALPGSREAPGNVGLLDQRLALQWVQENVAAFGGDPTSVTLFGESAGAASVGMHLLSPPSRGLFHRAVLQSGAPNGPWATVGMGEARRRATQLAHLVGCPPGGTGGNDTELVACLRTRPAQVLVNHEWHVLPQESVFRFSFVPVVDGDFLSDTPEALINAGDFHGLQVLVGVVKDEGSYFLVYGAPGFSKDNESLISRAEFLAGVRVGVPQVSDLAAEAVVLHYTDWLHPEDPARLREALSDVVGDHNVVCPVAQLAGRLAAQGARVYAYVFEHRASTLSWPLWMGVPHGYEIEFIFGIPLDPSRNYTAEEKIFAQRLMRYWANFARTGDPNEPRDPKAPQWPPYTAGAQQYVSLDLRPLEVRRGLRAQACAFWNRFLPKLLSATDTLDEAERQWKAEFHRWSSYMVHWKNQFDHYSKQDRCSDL

Turning to `CC(=O)N[C@@H](CS)C(=O)O`, the Activity amounted to 12.3% in [1] and 55.8% in [2].

For `C=C[C@@H]1[C@H]2C=C(C)C[C@]1(NC)c1ccc(=O)[nH]c1C2`, the inhibition result in experiment [3] and in experiment [5] was “Active” each time. Moreover, the results for the IC50 on Acetylcholinesterase [4] and against Acetylcholinesterase [6] were 2 µM and 15 µM, respectively.

Consider `C=C[C@@H]1[C@H]2C=C(C)C[C@]1(N)c1ccc(=O)[nH]c1C2`, for which the inhibition result in [3] and in experiment [5] was “Active” in each case.

`C=C[C@@H]1[C@@H]2Cc3[nH]c(=O)ccc3[C@@]1(N)C[C@H](C)C2`: the Activity worked out at 12% in experiment [7], 55.5% in experiment [8] and 49.1% in experiment [9].

Consider `CC1=C[C@H]2Cc3[nH]c(=O)ccc3[C@@]3(C1)[C@@H]2[C@H](C)CN3C`, for which, in [5], the inhibition entry is “Active”. This compound also showed an IC50 on Acetylcholinesterase [6] of 12.1 µM.

Consider `CC1=C[C@H]2Cc3[nH]c(=O)ccc3[C@@]3(C1)[C@@H]2[C@H](Cl)CCN3C`, for which the inhibition result in experiment [3] and in experiment [5] was “Active” throughout. Further, the IC50 at Acetylcholinesterase [6] is 20.9 µM.
